From US20230399312A1, “SUBSTITUTED PYRIMIDINES AND METHODS OF USE” (THERAVANCE BIOPHARMA R&D IP, LLC, priority 2020, published 2023) come the findings set out here.

In test [1] the target is T1, recombinant human ALK5 (TGF-βR1) protein (Homo sapiens, UniProt P36897).
T1 construct: purchased Life Technologies PR9075A
T1 sequence (P36897 34-503): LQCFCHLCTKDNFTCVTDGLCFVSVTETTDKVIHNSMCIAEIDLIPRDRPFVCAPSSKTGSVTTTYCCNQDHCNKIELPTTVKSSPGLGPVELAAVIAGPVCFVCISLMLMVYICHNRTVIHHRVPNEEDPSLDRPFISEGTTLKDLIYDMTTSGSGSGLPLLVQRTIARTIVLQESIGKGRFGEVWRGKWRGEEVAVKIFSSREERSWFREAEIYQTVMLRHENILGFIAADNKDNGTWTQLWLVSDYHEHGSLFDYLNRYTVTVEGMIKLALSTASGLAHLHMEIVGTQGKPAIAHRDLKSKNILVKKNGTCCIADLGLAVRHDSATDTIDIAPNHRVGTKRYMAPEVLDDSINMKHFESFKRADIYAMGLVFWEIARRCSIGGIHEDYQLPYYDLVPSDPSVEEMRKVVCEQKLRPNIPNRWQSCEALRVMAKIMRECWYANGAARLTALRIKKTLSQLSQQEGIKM
The experiment in a line: Biochemical ALK5 (TGF-βR1) assay to measure pKi (LANCE Ultra ULight kinase assay). The settings on record: apparent pKi, converted from pIC50 by Cheng-Prusoff. In a few lines:
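Europium TR-FRET kinase assay: the enzyme is exposed to compound for 60 min at room temperature, and reaction with ATP runs 60 min at 37 °C. Percent inhibition relative to DMSO and SD-208 controls gives pIC50, which is converted to pKi.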
(In general: TR-FRET usually uses a lanthanide donor and a delayed reading to cut background.)

The test system of test [2] is TGF-β-stimulated SMAD3 phosphorylation in BEAS-2B cells. In words: Cellular ALK5 potency assay, inhibition of TGF-β stimulated pSMAD3 formation in BEAS-2B cells. As to conditions: Homo sapiens, pSMAD3, TGF-β 10 ng/mL, read-out: BEAS2B pIC50 (converted). The format is cell-based. The method in brief:
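Potency is expressed as pIC50, based on dose-dependent reduction of TGF-β-induced pSMAD3 AlphaLISA signal relative to stimulated cells without compound. BEAS-2B cells received compound 1 h before a 30 min, 10 ng/mL TGF-β challenge.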

On to `Cc1cccc(-c2nccc(Nc3ccnc(Nc4nc(C(=O)OCC5CCNCC5)cs4)n3)n2)n1` [Compound 615, 4-piperidylmethyl 2-[[4-[[2-(6-methyl-2-pyridyl)pyrimidin-4-yl]amino]pyrimidin-2-yl]amino]thiazole-4-carboxylate], for which the Ki in test [1] was 0.398 to 3.16 nM. The IC50 in test [2] was 200 to 1260 nM.
As to `Cc1cccc(-c2nccc(Nc3ccnc(Nc4ccnc(C(=O)OCC5CNC5)c4)n3)n2)n1` [Compound 616, azetidin-3-ylmethyl 4-[[4-[[2-(6-methyl-2-pyridyl)pyrimidin-4-yl]amino]pyrimidin-2-yl]amino]pyridine-2-carboxylate], in test [1], the Ki was 0.398 to 3.16 nM. The IC50 in test [2] was 25.1 to 158 nM.
Regarding `Cc1cccc(-c2nccc(Nc3ccnc(Nc4ccc(C(=O)O[C@H]5CCCNC5)nc4)n3)n2)n1` [Compound 617, [(3S)-3-piperidyl] 5-[[4-[[2-(6-methyl-2-pyridyl)pyrimidin-4-yl]amino]pyrimidin-2-yl]amino]pyridine-2-carboxylate], the Ki in test [1] is 0.0398 to 0.316 nM. For the same compound, the IC50 in test [2] is 25.1 to 158 nM.
For `Cc1cccc(-c2nccc(Nc3ccnc(Nc4cncc(C(=O)OC[C@H]5CCCN5)c4)n3)n2)n1` [Compound 618, [(2R)-pyrrolidin-2-yl]methyl 5-[[4-[[2-(6-methyl-2-pyridyl)pyrimidin-4-yl]amino]pyrimidin-2-yl]amino]pyridine-3-carboxylate], the Ki in test [1] was 0.398 to 3.16 nM. For the same compound, the IC50 in test [2] is 25.1 to 158 nM.
The like results for `Cc1cccc(-c2nccc(Nc3ccnc(Nc4csc(C(=O)OCCN5CCC[C@H](N)C5)c4)n3)n2)n1` [Compound 619, 2-[(3S)-3-amino-1-piperidyl]ethyl 4-[[4-[[2-(6-methyl-2-pyridyl)pyrimidin-4-yl]amino]pyrimidin-2-yl]amino]thiophene-2-carboxylate] were, in that order, 0.0398 to 0.316 nM and 25.1 to 158 nM.
Take `Cc1cccc(-c2nccc(Nc3ccnc(Nc4ccc(C(=O)OC[C@H]5CCCNC5)nc4)n3)n2)n1` [Compound 620, [(3S)-3-piperidyl]methyl 5-[[4-[[2-(6-methyl-2-pyridyl)pyrimidin-4-yl]amino]pyrimidin-2-yl]amino]pyridine-2-carboxylate]: the Ki in test [1] was 0.0398 to 0.316 nM. Moreover, in test [2], the IC50 is 25.1 to 158 nM.
Regarding `Cc1cccc(-c2nccc(Nc3ccnc(Nc4csc(C(=O)OC[C@@H]5CCC[C@H](N)C5)c4)n3)n2)n1` [Compound 621, [(1R,3S)-3-aminocyclohexyl]methyl 4-[[4-[[2-(6-methyl-2-pyridyl)pyrimidin-4-yl]amino]pyrimidin-2-yl]amino]thiophene-2-carboxylate], in test [1], the Ki was 0.0398 to 0.316 nM. Besides, the IC50 in test [2] was 25.1 to 158 nM.
Take `Cc1cccc(-c2nccc(Nc3ccnc(Nc4ccc(C(=O)OC5CNC5)cn4)n3)n2)n1` [Compound 622, azetidin-3-yl 6-[[4-[[2-(6-methyl-2-pyridyl)pyrimidin-4-yl]amino]pyrimidin-2-yl]amino]pyridine-3-carboxylate]: the Ki in test [1] is 3.98 to 31.6 nM. For the same compound, in test [2], the IC50 is 25.1 to 158 nM.
As for `Cc1cccc(-c2nccc(Nc3ccnc(Nc4ncc(C5=CCNCC5)s4)n3)n2)n1` [Compound 623, N4-[2-(6-methyl-2-pyridyl)pyrimidin-4-yl]-N2-[5-(1,2,3,6-tetrahydropyridin-4-yl)thiazol-2-yl]pyrimidine-2,4-diamine], the Ki in test [1] is 0.398 to 3.16 nM. Besides, the IC50 in test [2] is 25.1 to 158 nM.
As to `Cc1cccc(-c2nccc(Nc3ccnc(Nc4cc(C(=O)OCCN5CCNCC5)ccn4)n3)n2)n1` [Compound 624, 2-piperazin-1-ylethyl 2-[[4-[[2-(6-methyl-2-pyridyl)pyrimidin-4-yl]amino]pyrimidin-2-yl]amino]pyridine-4-carboxylate], in test [1], the Ki was 3.98 to 31.6 nM. For the same compound, in test [2], the IC50 is 200 to 1260 nM.
Turning to `Cc1cccc(-c2nccc(Nc3ccnc(Nc4ccc(C(=O)OC[C@@H]5CCCNC5)nc4)n3)n2)n1` [Compound 625, [(3R)-3-piperidyl]methyl 5-[[4-[[2-(6-methyl-2-pyridyl)pyrimidin-4-yl]amino]pyrimidin-2-yl]amino]pyridine-2-carboxylate], the Ki in test [1] is 0.0398 to 0.316 nM. For the same compound, the IC50 in test [2] was 25.1 to 158 nM.
